What follows are compounds tested against Receptor protein serine/threonine kinase (Danio rerio, UniProt B3DJG0) (assay: Kinase assay Dorsalization).
Sequence of Receptor protein serine/threonine kinase (B3DJG0 whole entry): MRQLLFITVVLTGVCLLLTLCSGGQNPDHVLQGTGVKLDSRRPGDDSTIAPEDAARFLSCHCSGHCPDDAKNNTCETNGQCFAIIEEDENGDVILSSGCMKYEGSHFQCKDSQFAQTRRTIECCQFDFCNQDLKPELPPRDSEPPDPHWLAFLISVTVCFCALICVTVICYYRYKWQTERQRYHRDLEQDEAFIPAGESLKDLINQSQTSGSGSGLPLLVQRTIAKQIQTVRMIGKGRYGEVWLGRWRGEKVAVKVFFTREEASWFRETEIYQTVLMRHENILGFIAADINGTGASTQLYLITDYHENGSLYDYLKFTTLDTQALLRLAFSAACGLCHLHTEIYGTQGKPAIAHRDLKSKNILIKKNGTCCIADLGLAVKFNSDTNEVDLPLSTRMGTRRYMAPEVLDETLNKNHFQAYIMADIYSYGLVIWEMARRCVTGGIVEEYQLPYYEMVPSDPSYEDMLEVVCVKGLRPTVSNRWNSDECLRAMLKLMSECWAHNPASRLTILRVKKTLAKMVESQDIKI

EC100 [nM] | SMILES
1000 | CN(C)CCCOc1ccc(-c2cnc3c(-c4ccnc5ccccc45)cnn3c2)cc1 [DMH3]
> 50000 | COc1ccc(-c2cnc3c(-c4ccccc4)cnn3c2)cc1 [dorsomorphin (6LP)]
1000 | c1cc(-c2cnn3cc(-c4ccc(OCCN5CCOCC5)cc4)cnc23)ccn1
100 | c1ccc2c(-c3cnn4cc(-c5ccc(OCCN6CCOCC6)cc5)cnc34)ccnc2c1 [4-(2-(4-(3-(quinolin-4-yl)pyrazolo[1,5-a]pyrimidin-6-yl)phenoxy)ethyl)morpholine]
200 | CC(C)Oc1ccc(-c2cnc3c(-c4ccnc5ccccc45)cnn3c2)cc1 [4-(6-(4-isopropoxyphenyl)pyrazolo[1,5-a]pyrimidin-3-yl)quinoline]

SMILES | EC100 [nM]
c1ccc2c(-c3cnn4cc(-c5ccc(N6CCNCC6)cc5)cnc34)ccnc2c1 [LDN-193189] | 3000

Source: BindingDB's records for doi:10.1021/cb9002865 (Vanderbilt University, 2010)
